Structures can show the parent of a compound that is named as a salt.
Experiment: collision cross section in nitrogen (drift tube, single-field); higher = larger gas-phase ion size
[1] = ion type: [M-H], ion source: ESI, ion mode: Negative
[2] = ion type: [M+Na], ion source: ESI, ion mode: Positive
[3] = ion type: [M+H], ion source: APCI, ion mode: Positive
[4] = ion type: [M+H], ion source: ESI, ion mode: Positive
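Further: chemical standards at 10 µM analysed by drift tube IMS-QTOF MS in about 3.95 torr nitrogen, mean of duplicate injections differing ≤1%, mass error below 10 ppm.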

SMILES: CCCCCCc1ccc(O)cc1O [4-Hexylresorcinol]
- collision cross section in nitrogen [1]: 150.2 Å²

SMILES: COC(=O)Nc1ccc(Cl)c(Cl)c1 [Swep]
- collision cross section in nitrogen [1]: 140.9 Å²

SMILES: CCCCC(CC)COC(=O)C=Cc1ccc(OC)cc1 (stereo not given) [Octinoxate]
- collision cross section in nitrogen [2]: 184.1 Å²

SMILES: c1cc(OCC2CO2)ccc1Cc1ccc(OCC2CO2)cc1 (stereo not given) [Bis[4-(glycidyloxy)phenyl]methane]
- collision cross section in nitrogen [2]: 169 Å²

SMILES: C=CC1(C)OC(=O)N(c2cc(Cl)cc(Cl)c2)C1=O (stereo not given) [Vinclozolin]
- collision cross section in nitrogen [1]: 154.4 Å²

SMILES: Clc1ccc(Nc2nnc(Cc3ccncc3)c3ccccc23)cc1 [Vatalanib dihydrochloride]
- collision cross section in nitrogen [3]: 188 Å²
- collision cross section in nitrogen [4]: 187.6 Å²
- collision cross section in nitrogen [2]: 191.4 Å²
- collision cross section in nitrogen [1]: 188.9 Å²

SMILES: CCCCCCCc1ccc(O)cc1 [4-Heptylphenol]
- collision cross section in nitrogen [1]: 157.1 Å²

SMILES: CN(N=O)c1ccccc1 [N-Methyl-N-nitrosoaniline]
- collision cross section in nitrogen [3]: 124.5 Å²
- collision cross section in nitrogen [4]: 125.1 Å²

SMILES: O=C1C(N(CO)C(=O)NCO)N(CO)C(=O)N1CO (stereo not given) [Diazolidinyl urea]
- collision cross section in nitrogen [3]: 162.8 Å²

SMILES: CN(C1CCCCC1)S(=O)(=O)c1ccccc1N [2-Amino-N-cyclohexyl-N-methylbenzenesulfonamide]
- collision cross section in nitrogen [2]: 173.9 Å²

SMILES: CCCN(CCC)S(=O)(=O)c1ccc(C(=O)O)cc1 [Probenecid]
- collision cross section in nitrogen [1]: 172.9 Å²

SMILES: CCCCOCCOCCOCCOCCO [3,6,9,12-Tetraoxahexadecan-1-ol]
- collision cross section in nitrogen [3]: 157.1 Å²
- collision cross section in nitrogen [2]: 160.4 Å²

SMILES: C=CC(=O)OCC(CO)(COCC(COC(=O)C=C)(COC(=O)C=C)COC(=O)C=C)COC(=O)C=C [Dipentaerythritol pentaacrylate]
- collision cross section in nitrogen [2]: 217.9 Å²

SMILES: Nc1cc(-c2ccncc2)c[nH]c1=O [Amrinone]
- collision cross section in nitrogen [3]: 142.7 Å²
- collision cross section in nitrogen [4]: 143.3 Å²
- collision cross section in nitrogen [1]: 140.7 Å²

SMILES: CCCOc1nn(C(=O)NS(=O)(=O)c2ccccc2C(=O)OC)c(=O)n1C [Propoxycarbazone-sodium]
- collision cross section in nitrogen [1]: 193.2 Å²

SMILES: COc1ccccc1NC(=O)CC(C)=O [N-(2-Methoxyphenyl)-3-oxobutanamide]
- collision cross section in nitrogen [2]: 152.3 Å²

SMILES: CC(C)CP(=S)(S)CC(C)C [Sodium diisobutyldithiophosphinate]
- collision cross section in nitrogen [1]: 146.5 Å²

SMILES: COC(=O)C1=C(C)NC(C)=C(C(=O)OCC(C)C)C1c1ccccc1[N+](=O)[O-] (stereo not given) [Nisoldipine]
- collision cross section in nitrogen [2]: 195.5 Å²

SMILES: C[C@@H]1CN(c2c(F)c(N)c3c(=O)c(C(=O)O)cn(C4CC4)c3c2F)C[C@H](C)N1 [Sparfloxacin]
- collision cross section in nitrogen [4]: 190.2 Å²

SMILES: Oc1ccc(Cc2ccc(O)cc2)cc1 [Bis(4-hydroxyphenyl)methane]
- collision cross section in nitrogen [1]: 153.6 Å²

SMILES: O=S(=O)(O)c1ccc2cc(O)ccc2c1 [Sodium 6-hydroxynaphthalene-2-sulfonate]
- collision cross section in nitrogen [1]: 148.7 Å²

SMILES: N#Cc1ccc(C2CCCc3cncn32)cc1 (stereo not given)
- collision cross section in nitrogen [3]: 157 Å²
- collision cross section in nitrogen [4]: 157.2 Å²

SMILES: CCCCCCCCCCCCNC(=N)N [Dodecylguanidine acetate]
- collision cross section in nitrogen [3]: 175.2 Å²

SMILES: O=S(=O)(O)c1cc(O)c2ccc(Nc3ccccc3)cc2c1 [4-Hydroxy-7-(phenylamino)naphthalene-2-sulfonic acid]
- collision cross section in nitrogen [1]: 180.6 Å²

SMILES: CCCCC(C#N)(Cn1cncn1)c1ccc(Cl)cc1 (stereo not given) [Myclobutanil]
- collision cross section in nitrogen [4]: 174.7 Å²

SMILES: CN[C@H]1CC[C@@H](c2ccc(Cl)c(Cl)c2)c2ccc(S(N)(=O)=O)cc21
- collision cross section in nitrogen [1]: 197.2 Å²

SMILES: CCCCC(CC)C(=O)O (stereo not given) [2-Ethylhexanoic acid]
- collision cross section in nitrogen [1]: 138.1 Å²

SMILES: O=C(Nc1cccc(C(F)(F)F)c1)c1cc(Br)cc(Br)c1O [Fluorosalan]
- collision cross section in nitrogen [1]: 175.5 Å²

SMILES: CCCCCCCCN1CCCC1=O [1-Octyl-2-pyrrolidone]
- collision cross section in nitrogen [3]: 158.6 Å²
- collision cross section in nitrogen [4]: 158.5 Å²

SMILES: O=C(O)CNc1ccccc1 [Potassium anilinoacetate]
- collision cross section in nitrogen [1]: 134.6 Å²

SMILES: O=C(O)c1ccc(C(=O)O)c(C(=O)O)c1 [1,2,4-Benzenetricarboxylic acid]
- collision cross section in nitrogen [1]: 136.9 Å²

SMILES: O=S(O)CO [Hydroxymethanesulfinic acid monosodium salt dihydrate]
- collision cross section in nitrogen [1]: 112.7 Å²

SMILES: CC(C)c1cccc(C(C)C)c1O [Propofol]
- collision cross section in nitrogen [1]: 143.5 Å²

SMILES: c1coc(CNc2[nH]cnc3ncnc2-3)c1 [Kinetin]
- collision cross section in nitrogen [3]: 144.3 Å²
- collision cross section in nitrogen [4]: 144.4 Å²
- collision cross section in nitrogen [2]: 159.2 Å²
- collision cross section in nitrogen [1]: 148.4 Å²

SMILES: COc1ccc2[nH]cc(CCNC(C)=O)c2c1 [Melatonin]
- collision cross section in nitrogen [3]: 153.7 Å²
- collision cross section in nitrogen [4]: 153.3 Å²
- collision cross section in nitrogen [2]: 156.9 Å²
- collision cross section in nitrogen [1]: 156 Å²

SMILES: CC(C)CCCC(=O)O [5-Methylhexanoic acid]
- collision cross section in nitrogen [1]: 136.9 Å²

SMILES: C=C(C)C(=O)OCC(O)COc1ccc(C(C)(C)c2ccc(OCC(O)COC(=O)C(=C)C)cc2)cc1 (stereo not given) [Bisphenol A glycidyl methacrylate]
- collision cross section in nitrogen [2]: 215.5 Å²

SMILES: c1ccc(CNc2[nH]cnc3ncnc2-3)cc1 [N-Benzyl-1H-purin-6-amine]
- collision cross section in nitrogen [3]: 148.7 Å²
- collision cross section in nitrogen [4]: 148.3 Å²
- collision cross section in nitrogen [2]: 162.8 Å²
- collision cross section in nitrogen [1]: 154.5 Å²

SMILES: Nc1c(Oc2ccccc2)cc(O)c2c1C(=O)c1ccccc1C2=O [C.I. Disperse Red 60]
- collision cross section in nitrogen [3]: 177.7 Å²
- collision cross section in nitrogen [4]: 178 Å²
- collision cross section in nitrogen (ion type: [M+], ion source: APCI, ion mode: Positive): 172.6 Å²
- collision cross section in nitrogen [1]: 175.8 Å²

SMILES: COc1ccc(CCN2CCC(Nc3nc4ccccc4n3Cc3ccc(F)cc3)CC2)cc1 [Astemizole]
- collision cross section in nitrogen [4]: 210.8 Å²
- collision cross section in nitrogen [2]: 213.2 Å²
- collision cross section in nitrogen [1]: 227.8 Å²

SMILES: CCc1ccc(C(=O)NN(C(=O)c2cc(C)cc(C)c2)C(C)(C)C)cc1 [Tebufenozide]
- collision cross section in nitrogen [2]: 201.3 Å²
- collision cross section in nitrogen [1]: 193.6 Å²

SMILES: CC(C)(c1cc(Br)c(O)c(Br)c1)c1cc(Br)c(O)c(Br)c1 [3,3',5,5'-Tetrabromobisphenol A]
- collision cross section in nitrogen [1]: 193.4 Å²

SMILES: N#CCc1ccc(Cl)cc1 [4-Chlorophenylacetonitrile]
- collision cross section in nitrogen [1]: 130.4 Å²

SMILES: CCN(CC)c1c([N+](=O)[O-])cc(C(F)(F)F)c(N)c1[N+](=O)[O-] [Dinitramine]
- collision cross section in nitrogen [1]: 159.7 Å²

SMILES: CCCCCC/C=C\CCCCCCCC(=O)O [(Z)-Hexadec-9-enoic acid]
- collision cross section in nitrogen [1]: 168.4 Å²

SMILES: COC(=O)Nc1nc2ccccc2[nH]1 [Carbendazim]
- collision cross section in nitrogen [3]: 138.7 Å²
- collision cross section in nitrogen [4]: 139 Å²

SMILES: CCOC(=O)COC(=O)c1cc(Oc2ccc(C(F)(F)F)cc2Cl)ccc1[N+](=O)[O-] [Fluoroglycofen-ethyl]
- collision cross section in nitrogen [2]: 210.7 Å²

SMILES: CCNC(=O)[C@@H](C)OC(=O)Nc1ccccc1 [Carbetamide]
- collision cross section in nitrogen [2]: 167.4 Å²

SMILES: Cc1cc(N=Nc2ccccc2C)ccc1N [o-Aminoazotoluene]
- collision cross section in nitrogen [3]: 155.9 Å²
- collision cross section in nitrogen [4]: 156 Å²
- collision cross section in nitrogen [1]: 157.3 Å²

SMILES: Cc1c(N(C)CS(=O)(=O)O)c(=O)n(-c2ccccc2)n1C [Dipyrone monohydrate]
- collision cross section in nitrogen [1]: 173.9 Å²

SMILES: CC(C)NCC(O)COc1ccc(CC(N)=O)cc1 (stereo not given) [Atenolol]
- collision cross section in nitrogen [3]: 157.9 Å²
- collision cross section in nitrogen [4]: 157.8 Å²
- collision cross section in nitrogen [2]: 164.2 Å²
